One may read the solubility as how much of the substance goes into solution per volume.

Structures can show the parent of a compound that is named as a salt.

The results in this text go back to US5254541A, “(Quinolin-2-ylmethoxy)indole/cyclodextrin complex” (Merck Frosst Canada, Inc., priority 1991, dated 1993).

Series [1] is classed as physicochemical. Here is the method:
Phase solubility experiments were conducted by adding excess amounts (20 mg/mL) of L-686,708, sodium salt, to aqueous solutions (pH=9) containing various amounts of cyclodextrin and mixing on a rotating mixer. After equilibration at room temperature for at least 48 hrs, aliquots of the mixture were centrifuged to separate the undissolved sodium salt. The supernatant was diluted and dissolved L-686,708 concentration measured by HPLC. […] This stability constant is a tentative measure of complex formation.

Series [2] can be described thus: oral bioavailability, general statement. The settings on record: in vivo.
The nature of series [3]: solid state characteristics of the crystalline sodium salt. The format is physicochemical. The note with it: non-hygroscopicity, physical stability, etc.
A short description of another series: aqueous solubility. The format is physicochemical. The note with it: water, crystalline sodium salt.

Regarding `CC(C)(C)Sc1c(CC(C)(C)C(=O)O)n(Cc2ccc(Cl)cc2)c2ccc(OCc3ccc4ccccc4n3)cc12` [L-686,708 sodium salt, Crystalline 3-[N-(p-chlorobenzyl)-3-(t-butylthio)-5-(quinolin-2-ylmethoxy)indol-2-yl]-2.2-dimethylpropanoic acid, sodium salt], the “type of solubility curve (Higuchi)” value in series [1] was “An -type”. Further, in series [2], the “oral bioavailability (in words)” value is “low oral bioavailability”. Besides, in series [3], the “solid state characteristics (in words)” value is “good solid state characteristics, such as non-hygroscopicity, physical stability”. The solubility in the series “aqueous solubility” was in the range of 5 to 30 µg/mL.
